The source of these data is ChEMBL document CHEMBL3991601, “The target landscape of clinical kinase drugs” (Science, 2017).

For assay [1], the target named is Macrophage-stimulating protein receptor (Homo sapiens, UniProt Q04912).
Assay [2] has as its target Ribosomal protein S6 kinase alpha-4 (Homo sapiens, UniProt O75676).
Assay [3] concerns the target Tyrosine-protein kinase Fyn (Homo sapiens, UniProt P06241).
Assay [4] concerns the target cAMP-dependent protein kinase catalytic subunit alpha (Homo sapiens, UniProt P17612).
In assay [5] the target is Tyrosine-protein kinase CSK (Homo sapiens, UniProt P41240).
Assay [6] addresses T1, ATP-dependent RNA helicase DDX42 (Homo sapiens, UniProt Q86XP3).
T1 sequence (Q86XP3 whole entry): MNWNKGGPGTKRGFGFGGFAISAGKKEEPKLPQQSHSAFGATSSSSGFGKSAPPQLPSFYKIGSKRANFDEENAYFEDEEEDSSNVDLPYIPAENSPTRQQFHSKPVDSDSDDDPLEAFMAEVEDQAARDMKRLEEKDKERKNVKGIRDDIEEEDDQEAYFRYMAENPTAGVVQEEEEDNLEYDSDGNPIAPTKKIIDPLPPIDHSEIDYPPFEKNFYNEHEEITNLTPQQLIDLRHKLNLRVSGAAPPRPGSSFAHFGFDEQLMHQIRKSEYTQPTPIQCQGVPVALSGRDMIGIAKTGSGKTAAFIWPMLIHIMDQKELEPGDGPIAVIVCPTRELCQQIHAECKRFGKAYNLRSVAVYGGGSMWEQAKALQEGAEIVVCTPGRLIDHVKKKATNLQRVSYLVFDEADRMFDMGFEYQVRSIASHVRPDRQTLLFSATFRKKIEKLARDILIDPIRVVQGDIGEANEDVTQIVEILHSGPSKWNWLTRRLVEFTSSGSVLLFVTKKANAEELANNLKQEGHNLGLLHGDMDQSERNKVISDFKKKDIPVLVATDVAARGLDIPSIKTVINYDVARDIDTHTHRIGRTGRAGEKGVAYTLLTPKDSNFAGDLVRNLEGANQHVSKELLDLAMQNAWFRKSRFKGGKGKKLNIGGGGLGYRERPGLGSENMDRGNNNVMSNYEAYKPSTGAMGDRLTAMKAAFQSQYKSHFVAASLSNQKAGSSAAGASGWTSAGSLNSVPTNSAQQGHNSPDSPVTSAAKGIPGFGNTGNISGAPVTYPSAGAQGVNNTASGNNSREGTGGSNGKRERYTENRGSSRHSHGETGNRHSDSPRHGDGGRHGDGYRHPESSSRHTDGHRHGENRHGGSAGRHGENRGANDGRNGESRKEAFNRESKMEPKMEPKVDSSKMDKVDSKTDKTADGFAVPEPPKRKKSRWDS

The target in assay [7] is Tyrosine-protein kinase ABL1 (Homo sapiens, UniProt P00519).
The target of assay [8] is T2, ADP/ATP translocase 2 (Homo sapiens, UniProt P05141).
T2 sequence (P05141 whole entry): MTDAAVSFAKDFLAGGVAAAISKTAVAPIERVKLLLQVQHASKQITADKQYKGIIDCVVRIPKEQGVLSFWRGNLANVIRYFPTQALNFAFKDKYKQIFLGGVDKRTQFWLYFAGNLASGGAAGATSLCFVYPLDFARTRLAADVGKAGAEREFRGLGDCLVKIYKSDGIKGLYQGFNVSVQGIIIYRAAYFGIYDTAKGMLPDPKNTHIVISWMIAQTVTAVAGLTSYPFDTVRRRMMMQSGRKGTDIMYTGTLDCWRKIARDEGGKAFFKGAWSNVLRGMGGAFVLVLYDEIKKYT

Assay [9] deals with T3, Activin receptor type-1 (Homo sapiens, UniProt Q04771).
T3 sequence (Q04771 whole entry): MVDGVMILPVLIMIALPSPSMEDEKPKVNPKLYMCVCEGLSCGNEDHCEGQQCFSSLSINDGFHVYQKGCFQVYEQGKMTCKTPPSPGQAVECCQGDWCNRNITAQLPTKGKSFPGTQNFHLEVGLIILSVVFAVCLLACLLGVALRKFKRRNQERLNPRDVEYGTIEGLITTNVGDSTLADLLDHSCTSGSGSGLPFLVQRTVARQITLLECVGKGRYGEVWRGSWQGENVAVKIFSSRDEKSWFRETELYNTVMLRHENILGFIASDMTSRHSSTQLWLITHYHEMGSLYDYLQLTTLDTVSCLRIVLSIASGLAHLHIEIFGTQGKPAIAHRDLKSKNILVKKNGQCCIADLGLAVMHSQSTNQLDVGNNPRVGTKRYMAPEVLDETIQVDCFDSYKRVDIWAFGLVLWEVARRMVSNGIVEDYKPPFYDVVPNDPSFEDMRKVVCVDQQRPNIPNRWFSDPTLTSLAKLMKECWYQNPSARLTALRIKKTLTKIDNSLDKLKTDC

For assay [10], the target named is Elongation factor Tu, mitochondrial (Homo sapiens, UniProt P49411).
The target in assay [11] is Mitogen-activated protein kinase 7 (Homo sapiens, UniProt Q13164).
The target of assay [12] is T4, Delta(24)-sterol reductase (Homo sapiens, UniProt Q15392).
T4 sequence (Q15392 whole entry): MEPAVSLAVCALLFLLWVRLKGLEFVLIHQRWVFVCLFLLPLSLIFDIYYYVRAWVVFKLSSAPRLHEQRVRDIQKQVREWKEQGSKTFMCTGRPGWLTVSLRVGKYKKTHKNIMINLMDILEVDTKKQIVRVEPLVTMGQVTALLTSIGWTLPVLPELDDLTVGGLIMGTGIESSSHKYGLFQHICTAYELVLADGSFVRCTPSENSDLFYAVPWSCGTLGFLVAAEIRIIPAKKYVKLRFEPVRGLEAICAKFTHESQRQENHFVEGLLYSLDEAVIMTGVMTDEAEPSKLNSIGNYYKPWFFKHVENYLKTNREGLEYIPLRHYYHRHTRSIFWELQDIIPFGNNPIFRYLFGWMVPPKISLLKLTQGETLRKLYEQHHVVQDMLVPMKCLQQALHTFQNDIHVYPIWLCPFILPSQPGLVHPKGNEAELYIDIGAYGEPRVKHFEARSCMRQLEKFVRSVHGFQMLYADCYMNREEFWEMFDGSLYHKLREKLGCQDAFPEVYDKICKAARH

The target of assay [13] is Receptor-interacting serine/threonine-protein kinase 2 (Homo sapiens, UniProt O43353).

Each structure is given as a SMILES string. Activity calls are given as the source filed them. Rule as the data show it, for most assays here: actives have a measured Kd and inactives only a lower limit. A value given as a limit tells only on which side of the number the result lay.
Also: in the data inactive means no Kd found up to 30 µM.

Chain of Tyrosine-protein kinase Fyn (P06241 whole entry): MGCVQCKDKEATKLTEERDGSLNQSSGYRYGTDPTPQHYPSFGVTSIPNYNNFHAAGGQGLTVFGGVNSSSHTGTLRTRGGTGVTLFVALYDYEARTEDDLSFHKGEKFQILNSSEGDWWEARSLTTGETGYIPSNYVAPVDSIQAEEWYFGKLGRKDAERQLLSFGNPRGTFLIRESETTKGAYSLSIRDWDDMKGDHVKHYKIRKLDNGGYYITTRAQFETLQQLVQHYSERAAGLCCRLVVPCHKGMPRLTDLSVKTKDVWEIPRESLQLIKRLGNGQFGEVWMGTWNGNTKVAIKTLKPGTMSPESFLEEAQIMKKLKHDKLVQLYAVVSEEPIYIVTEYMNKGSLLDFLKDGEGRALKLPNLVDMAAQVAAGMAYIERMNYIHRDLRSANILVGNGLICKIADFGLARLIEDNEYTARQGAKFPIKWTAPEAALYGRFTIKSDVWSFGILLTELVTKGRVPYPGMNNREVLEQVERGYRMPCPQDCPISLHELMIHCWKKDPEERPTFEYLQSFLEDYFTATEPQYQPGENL
Chain of Receptor-interacting serine/threonine-protein kinase 2 (O43353 whole entry): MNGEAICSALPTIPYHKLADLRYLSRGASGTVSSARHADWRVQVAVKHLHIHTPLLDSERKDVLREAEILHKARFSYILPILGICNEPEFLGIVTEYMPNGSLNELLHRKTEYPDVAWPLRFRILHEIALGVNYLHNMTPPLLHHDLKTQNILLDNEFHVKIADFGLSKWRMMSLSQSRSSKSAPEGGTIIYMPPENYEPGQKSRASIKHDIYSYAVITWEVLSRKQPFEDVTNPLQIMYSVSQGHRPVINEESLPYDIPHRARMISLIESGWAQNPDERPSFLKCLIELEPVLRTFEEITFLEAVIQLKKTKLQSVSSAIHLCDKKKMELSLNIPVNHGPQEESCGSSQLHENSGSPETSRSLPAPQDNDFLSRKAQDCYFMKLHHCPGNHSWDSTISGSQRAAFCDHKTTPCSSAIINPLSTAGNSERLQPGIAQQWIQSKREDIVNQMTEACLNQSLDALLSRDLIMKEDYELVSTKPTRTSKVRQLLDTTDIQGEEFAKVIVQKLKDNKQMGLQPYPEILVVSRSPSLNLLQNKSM
Chain of Tyrosine-protein kinase CSK (P41240 whole entry): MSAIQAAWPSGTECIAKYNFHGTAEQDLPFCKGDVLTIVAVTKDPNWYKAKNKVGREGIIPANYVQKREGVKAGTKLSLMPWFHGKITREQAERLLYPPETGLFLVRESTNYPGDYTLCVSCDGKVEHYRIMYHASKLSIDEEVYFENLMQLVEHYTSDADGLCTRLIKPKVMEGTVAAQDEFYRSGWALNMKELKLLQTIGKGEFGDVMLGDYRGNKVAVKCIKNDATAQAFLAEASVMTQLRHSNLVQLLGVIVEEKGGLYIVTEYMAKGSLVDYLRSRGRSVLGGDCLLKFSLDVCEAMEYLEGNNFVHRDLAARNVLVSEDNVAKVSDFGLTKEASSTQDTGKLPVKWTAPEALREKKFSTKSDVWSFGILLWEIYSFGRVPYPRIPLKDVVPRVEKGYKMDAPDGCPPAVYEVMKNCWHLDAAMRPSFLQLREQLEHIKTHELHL
Chain of Tyrosine-protein kinase ABL1 (P00519 whole entry): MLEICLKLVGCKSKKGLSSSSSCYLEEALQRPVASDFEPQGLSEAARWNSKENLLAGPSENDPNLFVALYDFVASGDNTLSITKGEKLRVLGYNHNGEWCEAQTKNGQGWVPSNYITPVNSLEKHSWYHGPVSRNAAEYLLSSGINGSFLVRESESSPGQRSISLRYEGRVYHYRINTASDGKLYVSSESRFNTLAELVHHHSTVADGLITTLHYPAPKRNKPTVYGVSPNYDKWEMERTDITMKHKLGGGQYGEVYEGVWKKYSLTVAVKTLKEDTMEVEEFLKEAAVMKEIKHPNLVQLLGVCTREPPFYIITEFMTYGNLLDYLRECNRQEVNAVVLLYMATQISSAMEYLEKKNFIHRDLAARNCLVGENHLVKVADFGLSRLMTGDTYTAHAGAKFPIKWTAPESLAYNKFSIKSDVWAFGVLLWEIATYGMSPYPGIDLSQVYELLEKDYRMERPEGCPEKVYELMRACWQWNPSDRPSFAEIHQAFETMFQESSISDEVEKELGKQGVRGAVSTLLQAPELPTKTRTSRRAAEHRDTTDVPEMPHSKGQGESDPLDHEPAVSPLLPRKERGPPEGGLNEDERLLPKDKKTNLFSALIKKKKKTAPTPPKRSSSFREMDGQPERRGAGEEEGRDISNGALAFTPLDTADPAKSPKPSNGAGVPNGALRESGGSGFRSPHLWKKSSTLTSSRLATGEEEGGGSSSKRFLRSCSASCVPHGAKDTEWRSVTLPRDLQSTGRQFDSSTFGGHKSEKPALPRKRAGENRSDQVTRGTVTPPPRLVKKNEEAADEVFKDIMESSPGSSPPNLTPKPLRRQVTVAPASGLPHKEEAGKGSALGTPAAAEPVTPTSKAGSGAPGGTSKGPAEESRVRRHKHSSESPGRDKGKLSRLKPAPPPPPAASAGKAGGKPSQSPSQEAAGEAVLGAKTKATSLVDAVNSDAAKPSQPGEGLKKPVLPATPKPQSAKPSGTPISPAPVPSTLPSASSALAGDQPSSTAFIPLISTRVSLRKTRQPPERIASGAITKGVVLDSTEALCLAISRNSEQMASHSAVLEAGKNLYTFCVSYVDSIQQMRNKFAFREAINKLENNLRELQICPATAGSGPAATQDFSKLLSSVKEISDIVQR
Chain of Mitogen-activated protein kinase 7 (Q13164 whole entry): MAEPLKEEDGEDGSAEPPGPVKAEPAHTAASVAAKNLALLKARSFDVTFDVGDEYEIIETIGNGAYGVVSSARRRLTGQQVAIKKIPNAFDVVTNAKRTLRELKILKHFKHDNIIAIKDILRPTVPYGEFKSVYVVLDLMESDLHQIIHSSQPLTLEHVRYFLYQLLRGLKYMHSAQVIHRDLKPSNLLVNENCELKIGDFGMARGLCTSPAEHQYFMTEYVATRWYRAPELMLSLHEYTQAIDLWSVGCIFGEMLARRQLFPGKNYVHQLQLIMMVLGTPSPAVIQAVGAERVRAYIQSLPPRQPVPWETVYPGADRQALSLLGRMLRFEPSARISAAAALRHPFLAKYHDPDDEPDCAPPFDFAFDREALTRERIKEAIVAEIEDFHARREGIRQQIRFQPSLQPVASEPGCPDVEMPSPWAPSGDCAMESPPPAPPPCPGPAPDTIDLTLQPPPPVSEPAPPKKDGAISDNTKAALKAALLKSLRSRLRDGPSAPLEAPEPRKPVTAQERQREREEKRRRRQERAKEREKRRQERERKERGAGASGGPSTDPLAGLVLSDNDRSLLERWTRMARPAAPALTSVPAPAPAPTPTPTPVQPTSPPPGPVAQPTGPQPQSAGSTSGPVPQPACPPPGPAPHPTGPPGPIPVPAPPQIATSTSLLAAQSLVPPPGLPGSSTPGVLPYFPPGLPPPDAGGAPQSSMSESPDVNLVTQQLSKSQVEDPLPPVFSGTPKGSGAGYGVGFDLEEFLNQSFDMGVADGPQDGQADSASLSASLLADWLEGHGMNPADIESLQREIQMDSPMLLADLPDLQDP
Chain of Ribosomal protein S6 kinase alpha-4 (O75676 whole entry): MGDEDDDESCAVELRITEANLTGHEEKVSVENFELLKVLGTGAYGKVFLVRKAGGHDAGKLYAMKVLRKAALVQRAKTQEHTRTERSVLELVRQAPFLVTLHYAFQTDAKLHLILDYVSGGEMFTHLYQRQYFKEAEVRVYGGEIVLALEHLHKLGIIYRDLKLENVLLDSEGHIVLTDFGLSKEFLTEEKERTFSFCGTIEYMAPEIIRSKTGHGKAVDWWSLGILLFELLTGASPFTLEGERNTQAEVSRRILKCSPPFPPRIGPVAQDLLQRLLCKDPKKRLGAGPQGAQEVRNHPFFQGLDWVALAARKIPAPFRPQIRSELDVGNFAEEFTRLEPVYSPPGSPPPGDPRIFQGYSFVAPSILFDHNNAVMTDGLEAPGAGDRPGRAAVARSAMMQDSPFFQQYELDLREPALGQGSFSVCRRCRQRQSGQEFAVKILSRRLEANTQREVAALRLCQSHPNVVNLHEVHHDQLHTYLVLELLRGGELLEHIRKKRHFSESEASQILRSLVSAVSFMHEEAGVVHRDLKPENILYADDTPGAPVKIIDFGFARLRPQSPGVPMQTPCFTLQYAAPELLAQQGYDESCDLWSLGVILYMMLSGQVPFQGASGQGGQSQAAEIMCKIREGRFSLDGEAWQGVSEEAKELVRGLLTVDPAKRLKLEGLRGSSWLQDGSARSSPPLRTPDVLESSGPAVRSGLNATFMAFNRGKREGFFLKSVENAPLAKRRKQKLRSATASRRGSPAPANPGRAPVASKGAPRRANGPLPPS

The Kd is the concentration at which binding is half-saturated. Turning to `CCc1cc2c(cc1N1CCC(N3CCOCC3)CC1)C(C)(C)c1[nH]c3cc(C#N)ccc3c1C2=O` [ALECTINIB], the Kd in assay [1], in [2], in [3], in assay [4], in [5] and in [6] was > 30 µM (inactive) throughout. The Kd in assay [7], in assay [8], in assay [9], in [10], in assay [11] and in assay [12] was > 30 µM (inactive) in each case. In assay [13], the Kd is > 30 µM (inactive).

On to `COc1cc2ncnc(Nc3ccc(F)c(Cl)c3)c2cc1NC(=O)/C=C/CN1CCCCC1` [DACOMITINIB ANHYDROUS], for which the Kd in [1], in assay [2], in assay [3], in assay [4], in assay [5] and in assay [6] was > 30 µM (inactive) in each case. Further, the Kd in [7], in assay [8], in [9], in [10], in assay [11] and in [12] was > 30 µM (inactive) throughout. In addition, in [13], the Kd was 0.988 µM (active).

`Cc1c(NC(=O)OC[C@@H]2COCCN2)cn2ncnc(Nc3ccc4c(cnn4Cc4cccc(F)c4)c3)c12` [AC-480]: the Kd in assay [1], in assay [2], in [3], in assay [4], in [5] and in assay [6] was > 30 µM (inactive) throughout. Also, the Kd in assay [7], in [8], in assay [9], in [10], in [11] and in [12] was > 30 µM (inactive) each time. Further, the Kd in assay [13] was > 30 µM (inactive).

Consider `Cc1cc(Nc2nc(N[C@@H](C)c3ncc(F)cn3)ncc2Cl)n[nH]1` [AZD-1480], for which the Kd in assay [1], in assay [2], in assay [3], in [4], in assay [5] and in [6] was > 30 µM (inactive) throughout. Further, the Kd in assay [7], in assay [8], in [9], in [10], in assay [11] and in assay [12] was > 30 µM (inactive) each time. For the same molecule, in [13], the Kd was > 30 µM (inactive).

Consider `Cc1ccc(C(=O)Nc2ccc(Oc3cc4cnn(C)c4cc3-c3cn[nH]c3)c(F)c2)c(=O)n1-c1ccc(F)cc1` [MERESTINIB], for which the Kd is 0.232 µM in [1]; > 30 µM (inactive) in assay [2]; > 30 µM (inactive) in [3]; > 30 µM (inactive) in [4]; > 30 µM (inactive) in [5]; > 30 µM (inactive) in [6]. For the same molecule, the Kd in assay [7], in [8], in assay [9], in [10], in [11] and in assay [12] was > 30 µM (inactive) each time. The Kd in assay [13] is > 30 µM (inactive).

For `CNC(=O)c1cc(COc2nnc(Nc3ccc(Cl)cc3)c3ccoc23)ccn1` [TELATINIB], the Kd in assay [1], in [2], in [3], in assay [4], in [5] and in assay [6] was > 30 µM (inactive) throughout. Moreover, the Kd in assay [7], in assay [8], in assay [9], in assay [10], in assay [11] and in assay [12] was > 30 µM (inactive) each time. Besides, in assay [13], the Kd is > 30 µM (inactive).

Regarding `CNC(=O)c1cccc(-c2ccc3c(N4CCOC[C@@H]4C)nc(N4CCOC[C@@H]4C)nc3n2)c1` [VISTUSERTIB], the Kd in assay [1], in assay [2], in [3], in assay [4], in assay [5] and in assay [6] was > 30 µM (inactive) throughout. Moreover, the Kd in assay [7], in assay [8], in assay [9], in assay [10], in assay [11] and in assay [12] was > 30 µM (inactive) in each case. Moreover, the Kd in [13] was > 30 µM (inactive).

Take `O=C(NC[C@H](O)CO)c1ccncc1Nc1ccc(I)cc1F` [PIMASERTIB]: the Kd in assay [1], in assay [2], in [3], in [4], in assay [5] and in assay [6] was > 30 µM (inactive) each time. For the same molecule, the Kd in assay [7], in [8], in assay [9], in assay [10], in assay [11] and in [12] was > 30 µM (inactive) throughout. Moreover, the Kd in [13] is > 30 µM (inactive).
